US7414078B2, “Oral general anesthetics and metabolitically resistant anticonvulsants” (University of Virginia Patent Foundation, priority 2001, dated 2008)
Where two headings read alike, the source gives them in different places. Marks after values point to notes of the source that are not given here.

Legend:
blood dyscrasias, rash = details: 1950's findings; cited from earlier work
[1] = test system: Isoflurane anesthesia (minimum alveolar concentration, MAC); experiment: General anesthesia test: reduction of isoflurane MAC after i.p. compound; format: in vivo, rats; details: for anesthetic activity: rat, in vivo; for MAC value of Isoflurane at 60 mg/kg of compound / Percent Reduction in Isoflurane: rats; for MAC value of Isoflurane at 60 mg/kg of compound: 60 mg/kg i.p. in peanut oil, 1.2% isoflurane generates 100% anesthesia; for Percent Reduction in Isoflurane: 60 mg/kg i.p., relative to 1.2% isoflurane
Procedure: The MAC value is the minimum alveolar concentration of anesthetic at 1 atm that produces immobility in 50% of the subjects.
200 mg of each compound are tested for general anesthesia activity Testing is performed on rats to determine the percent reduction in the use of isoflurane. Inhaled anesthetics still need to be utilized to rapidly adjust the level of anesthesia. Since no single anesthetic is capable of all four requirements for anesthesia, a combination is utilized. The rats were first anesthetized with isoflurane, intubated, ventilated and then a femoral line was inserted. After the rat had been stable for 15 minutes, the initial minimum alveolar concentration (MAC) value was determined. […] After 30 minutes the second MAC value was determined post administration. Finally, after one hour the third MAC value was determined. At each MAC determination, a sample of blood was taken to determine pH, pCO2, and pO2. The results of the compounds tested to date are compared to the lead compound 17.
(§1) A classical comparison of log P and MAC reduction was investigated. A graph representing the effects of log P on the biological activity is presented in graphic form (See FIG. 1). The general anesthetic activity of compounds 20-23 and 36-43 were compared to lead compound 17 as represented in the graph (FIG. 1) and in Table 1. The partition coefficient, P, is a measure of the way the compound distributes itself between octanol and water. […] Therefore, meta-substituted derivatives 20 will be the focus of future synthesize. Bulky substituents on the alcohol were also found to have low activity.

seizures = details: cited from earlier work; for anticonvulsant activity: tested in the 1950's
[2] = test system: pentylenetetrazol-induced seizures (scMet); experiment: Subcutaneous pentylenetetrazol seizure threshold (scMet) test, mice i.p. (NIH); format: in vivo; details: for SCMET, animals protected/animals tested: mice i.p.
Procedure: (§2) 300 mg of each compound was synthesized and sent to the National institute of Health's Anticonvulsant Screening Project of the Antiepileptic Drug Discovery Program. NIH performs anticonvulsant testing (oral and intraperitoneal, i.p.) on both mice and rats in phase I trials. The grand mal model is conducted with a maximal electroshock (MES) test, where corneal electrode implants are primed with a drop of electrolyte solution and an electrical stimulus is delivered for 0.2 second. The model examines the compounds' ability to stop the spread of seizures. The petite mal model is conducted with a subcutaneous pentylenetetrazol seizure threshold (scMet) test. The animals are injected with a convulsant dose of pentylenetetrazol at the peak effect time of the compound. This model measures the compounds' threshold for seizures. A toxicity test (TOX) is performed where the animals walk on a spinning rod for varying lengths of time to check for the loss of righting reflex or other toxic effects.

[3] = test system: loss of righting reflex or other toxic effects on spinning rod; experiment: Toxicity test (TOX), spinning rod, rat oral (NIH); format: in vivo, rats; details: 30 mg/kg
Procedure: as §2

[4] = test system: loss of righting reflex or other toxic effects on spinning rod; experiment: Toxicity test (TOX), spinning rod, mice i.p. (NIH); format: in vivo; details: for TOX, animals affected/animals tested: mice i.p.
Procedure: as §2

[5] = test system: blood pressure / hemodynamics; experiment: Hemodynamic effects during isoflurane anesthesia; format: in vivo, rats
Procedure: 200 mg of each compound are tested for general anesthesia activity Testing is performed on rats to determine the percent reduction in the use of isoflurane. Inhaled anesthetics still need to be utilized to rapidly adjust the level of anesthesia. Since no single anesthetic is capable of all four requirements for anesthesia, a combination is utilized. The rats were first anesthetized with isoflurane, intubated, ventilated and then a femoral line was inserted. After the rat had been stable for 15 minutes, the initial minimum alveolar concentration (MAC) value was determined. Then, 60 mg/kg of drug was sonicated in 3 mL of peanut oil and injected (i.p.). After 30 minutes the second MAC value was determined post administration. Finally, after one hour the third MAC value was determined. At each MAC determination, a sample of blood was taken to determine pH, pCO2, and pO2. The results of the compounds tested to date are compared to the lead compound 17.

[6] = test system: seizures induced by maximal electroshock (MES); experiment: Maximal electroshock (MES) test, rat oral (NIH); format: in vivo, rats; details: 30 mg/kg; for MES, animals protected/animals tested: rat oral
Procedure: as §2

[7] = test system: seizures induced by maximal electroshock (MES); experiment: Maximal electroshock (MES) test, mice i.p. (NIH); format: in vivo; details: for MES, animals protected/animals tested: mice i.p.; for MES, mice protected: phase I i.p. mice
Procedure: as §2

toxicity, lethal dose = experiment: Toxicity / lethal dose noted with general anesthetic activity comparison; format: in vivo; details: for lethal dose: in vivo; for toxicity: same dosage = 300 mg/kg
Source text: as §1

rats = experiment: Anticonvulsant testing of compound 17 in rats (oral ED50, toxicity, surgical anesthesia); format: in vivo
Source text: In addition increased halogen size and saturation at the position 3 carbon also increase anesthetic activity. A hydrogen bond donor is also important at the position 2 carbon, but bulk is not well tolerated.

[8] = 300 mg/kg, 0.5 hours, footnotes: loss of righting reflex (and one death for Cmp 20, 21)
[9] = 300 mg/kg, 4.0 hours, footnote c: loss of righting reflex (Cmp 20, 21)
[10] = rats, 60 mg/kg i.p., isoflurane anesthesia

## CC(O)(C(N)=O)c1ccccc1 (racemic) [Themisone, α-hydroxy-α-methylbenzeneacetamide]
Blood dyscrasias, rash
  toxicity: toxic (blood dyscrasias, rash)
[1]
  anesthetic activity: no anesthetic activity
seizures; racemic mixture, 250 mg/kg
  mice protected against seizures: 4 out of 4
seizures
  anticonvulsant activity: very potent anticonvulsant
seizures; listed as atrolactamide (themisone)
  anticonvulsant activity: anticonvulsant activity

## CN1C(=O)C(O)(C(F)(F)F)c2ccccc21 (stereo not drawn) [Compound 23]
[2]; 30 mg/kg, 0.5 hours
  SCMET, animals protected/animals tested: 1/5
[2]; 30 mg/kg, 4.0 hours
  SCMET, animals protected/animals tested: 0/1
[2]; 100 mg/kg, 0.5 hours
  SCMET, animals protected/animals tested: 0/1
[2]; 100 mg/kg, 4.0 hours
  SCMET, animals protected/animals tested: 0/1
[2]; 300 mg/kg, 0.5 hours
  SCMET, animals protected/animals tested: 1/1
[2]; 300 mg/kg, 4.0 hours
  SCMET, animals protected/animals tested: 1/1
[3]; 0.25 hrs.
  TOX, animals affected/animals tested: 0/4
[3]; 0.5 hrs.
  TOX, animals affected/animals tested: 0/4
[3]; 1.0 hrs.
  TOX, animals affected/animals tested: 0/4
[3]; 2.0 hrs.
  TOX, animals affected/animals tested: 0/4
[3]; 4.0 hrs.
  TOX, animals affected/animals tested: 0/4
[4]; 30 mg/kg, 0.5 hours
  TOX, animals affected/animals tested: 0/4
[4]; 30 mg/kg, 4.0 hours
  TOX, animals affected/animals tested: 0/2
[4]; 100 mg/kg, 0.5 hours
  TOX, animals affected/animals tested: 1/8
[4]; 100 mg/kg, 4.0 hours
  TOX, animals affected/animals tested: 0/4
[4]; [8]
  TOX, animals affected/animals tested: 4/4^c
[4]; [9]
  TOX, animals affected/animals tested: 1/2
[5]; [10]
  Hemodynamic Effects: none
[1]
  MAC value of Isoflurane at 60 mg/kg of compound: 0.95%
  Percent Reduction in Isoflurane: 20.8%
[6]; 0.25 hrs.
  MES, animals protected/animals tested: 2/4
[6]; 0.5 hrs.
  MES, animals protected/animals tested: 1/4
[6]; 1.0 hrs.
  MES, animals protected/animals tested: 2/4
[6]; 2.0 hrs.
  MES, animals protected/animals tested: 2/4
[6]; 4.0 hrs.
  MES, animals protected/animals tested: 2/4
[7]; 30 mg/kg, 0.5 hours
  MES, animals protected/animals tested: 0/1
[7]; 30 mg/kg, 4.0 hours
  MES, animals protected/animals tested: 0/1
[7]; 100 mg/kg, 0.5 hours
  MES, animals protected/animals tested: 3/3
[7]; 100 mg/kg, 4.0 hours
  MES, animals protected/animals tested: 0/3
[7]; 300 mg/kg, 0.5 hours
  MES, animals protected/animals tested: 1/1
[7]; 300 mg/kg, 4.0 hours
  MES, animals protected/animals tested: 1/1

## O=C1Nc2ccccc2C1(O)C(F)(F)F (stereo not drawn) [Compound 22]
[5]; [10]
  Hemodynamic Effects: none
[1]
  MAC value of Isoflurane at 60 mg/kg of compound: 1.05%
  Percent Reduction in Isoflurane: 12.5%

## NC(=O)C(O)(c1cccc(F)c1)C(F)(F)F (racemic) [Compound 20]
[2]; 30 mg/kg, 0.5 hours
  SCMET, animals protected/animals tested: 2/5
[2]; 30 mg/kg, 4.0 hours
  SCMET, animals protected/animals tested: 0/1
[2]; 100 mg/kg, 0.5 hours
  SCMET, animals protected/animals tested: 1/1
[2]; 100 mg/kg, 4.0 hours
  SCMET, animals protected/animals tested: 1/1
toxicity, lethal dose
  lethal dose: 300 mg/kg
  toxicity: very toxic
[4]; 30 mg/kg, 0.5 hours
  TOX, animals affected/animals tested: 0/4
[4]; 30 mg/kg, 4.0 hours
  TOX, animals affected/animals tested: 0/2
[4]; 100 mg/kg, 0.5 hours
  TOX, animals affected/animals tested: 6/8
[4]; 100 mg/kg, 4.0 hours
  TOX, animals affected/animals tested: 0/4
[4]; [8]
  TOX, animals affected/animals tested: 4/4^b
[4]; [9]
  TOX, animals affected/animals tested: 1/1^c
[5]; [10]
  Hemodynamic Effects: lowers blood
[1]
  anesthetic activity: high activity
  MAC value of Isoflurane at 60 mg/kg of compound: 0.70%
  Percent Reduction in Isoflurane: 42%
[7]; 30 mg/kg, 0.5 hours
  MES, animals protected/animals tested: 0/1^a
[7]; 30 mg/kg, 4.0 hours
  MES, animals protected/animals tested: 0/1
[7]; 100 mg/kg, 0.5 hours
  MES, animals protected/animals tested: 3/3
[7]; 100 mg/kg, 4.0 hours
  MES, animals protected/animals tested: 3/3
[7]; 300 mg/kg, 0.5 hours
  MES, animals protected/animals tested: 0/0
[7]; 300 mg/kg, 4.0 hours
  MES, animals protected/animals tested: 1/1

## NC(=O)C(O)(c1ccc(Cl)cc1)C(F)(F)F (racemic) [Compound 21]
[2]; 30 mg/kg, 0.5 hours
  SCMET, animals protected/animals tested: 0/1
[2]; 30 mg/kg, 4.0 hours
  SCMET, animals protected/animals tested: 0/1
[2]; 100 mg/kg, 0.5 hours
  SCMET, animals protected/animals tested: 4/4
[2]; 100 mg/kg, 4.0 hours
  SCMET, animals protected/animals tested: 1/1
[2]; 300 mg/kg, 0.5 hours
  SCMET, animals protected/animals tested: 0/0
[2]; 300 mg/kg, 4.0 hours
  SCMET, animals protected/animals tested: 1/1
[3]; 0.25 hrs.
  TOX, animals affected/animals tested: 0/4
[3]; 0.5 hrs.
  TOX, animals affected/animals tested: 0/4
[3]; 1.0 hrs.
  TOX, animals affected/animals tested: 0/4
[3]; 2.0 hrs.
  TOX, animals affected/animals tested: 0/4
[3]; 4.0 hrs.
  TOX, animals affected/animals tested: 0/4
toxicity, lethal dose
  toxicity: toxic at the same dosage
[4]; 30 mg/kg, 0.5 hours
  TOX, animals affected/animals tested: 0/4
[4]; 30 mg/kg, 4.0 hours
  TOX, animals affected/animals tested: 0/2
[4]; 100 mg/kg, 0.5 hours
  TOX, animals affected/animals tested: 6/8
[4]; 100 mg/kg, 4.0 hours
  TOX, animals affected/animals tested: 3/4
[4]; [8]
  TOX, animals affected/animals tested: 4/4^b
[4]; [9]
  TOX, animals affected/animals tested: 1/1^c
[5]; [10]
  Hemodynamic Effects: none
[1]
  anesthetic activity: very active
  MAC value of Isoflurane at 60 mg/kg of compound: 0.65%
  Percent Reduction in Isoflurane: 46%
[6]; 0.25 hrs.
  MES, animals protected/animals tested: 1/4
[6]; 0.5 hrs.
  MES, animals protected/animals tested: 1/4
[6]; 1.0 hrs.
  MES, animals protected/animals tested: 1/4
[6]; 2.0 hrs.
  MES, animals protected/animals tested: 1/4
[6]; 4.0 hrs.
  MES, animals protected/animals tested: 1/4
[7]; 30 mg/kg, 0.5 hours
  MES, animals protected/animals tested: 0/1
[7]; 30 mg/kg, 4.0 hours
  MES, animals protected/animals tested: 0/1
[7]; 100 mg/kg, 0.5 hours
  MES, animals protected/animals tested: 0/3
[7]; 100 mg/kg, 4.0 hours
  MES, animals protected/animals tested: 1/3

## NC(=O)C(O)(c1ccccc1)C(F)(F)Cl (stereo not drawn) [Compound 42]
toxicity, lethal dose
  lethal dose: 300 mg/kg
  toxicity: very toxic
[1]
  anesthetic activity: high activity

## NC(=O)C(O)(c1ccccc1)C(F)(F)F (stereo not drawn) [Compound 17, 3,3,3-Trifluoro-2-hydroxy-2-phenyl-propionamide]
[5]; rat, in vivo
  Hemodynamic Effects: no hemodynamic effects
[5]; rat, in vivo, ip, 60 mg/kg
  Hemodynamic Effects: none
rats; Rattus norvegicus, rats, oral, read-out: anesthetic activity, oral ED50
  ED50: 9 mg/kg
rats; rats, oral
  toxicity at dose: 300 mg/kg
rats; third stage: general loss of spinal reflexes and muscle tone
  stage of anesthesia exhibited by animals: surgical anesthesia
[1]; isoflurane 1.2% in O2, dose not stated
  lowering of minimum alveolar concentration (MAC) value of isoflurane: sixty
[1]
  MAC value of Isoflurane at 60 mg/kg of compound: 0.65%
  Percent Reduction in Isoflurane: 46%

## NC(=O)C(O)(c1ccc(F)cc1)C(F)(F)F (stereo not drawn) [Compound 39, 3,3,3-Trifluoro-2-hydroxy-2-(4-fluoro-phenyl)-propionamide]
[2]; species and dose not stated
  activity as an anticonvulsant in scMET assay: demonstrated activity
toxicity, lethal dose
  toxicity: toxic at the same dosage
[4]; mice, 100 mg/kg, duration of 0.5 hours
  Neurotoxicity, mice unable to grasp rod: seven of eight
[1]; 300 mg/kg
  animals with a 100% reduction in Isoflurane MAC: 3 out of 4
[1]
  anesthetic activity: very active
[6]; phase I oral rat, duration of 2 hours
  MES, rats protected: 4 out of 4
[7]; 100 mg/kg, duration of 0.5 hours
  MES, mice protected: 5 out of 5
[7]; 100 mg/kg, duration of 1 hour
  MES, mice protected: 2 out of 3
